Reference: patent publication US6784184B2, “5-(arylsulfonyl)-,5-(arylsulfinyl), and 5-(arylsulfanyl)-thiazolidine-2,4-diones useful for inhibition of farnesyl-protein transferase” (Wyeth Holdings Corporation, priority 2001, dated 2004)

How the values were obtained:
FPTase (K-Ras substrate) = FPTase (K-Ras substrate) (UniProt P29702+P49355); assay: in vitro FTase Inhibition Assay, K-Ras as substrate for farnesylation; assay type: biochemical; details: K-Ras used as substrate for farnesylation
Description: (§1) The ability of the compounds of this invention to inhibit FPTase was evaluated in the standard pharmacological in vitro test procedures described below.
(§2) Methods—1. […] 2. Solution #1 is added to FPTase reaction in a volume of […]. 3. Standard reaction mix, […], contains 50 mM Tris (7.5), […], 3 mM MgCl2, 20 mM KCl, 5 mM DTT, 0.2% octyl-B-glucoside, 1% DMSO, […], 10 ng FPTase, and various concentrations of FPTase inhibitors. 4. Incubate for 30-90 min at […] 5. Stop reactions with TCA/SDS (6%/2%), hold at 4° C. for 45-60 min. 6. Filter by manifold or 96 well plate, wash filter 3-5× with TCA (6%). 7. Add scintillant to filters, measure ^3H-FPP incorporation into Ras protein.
(§3) (cpm from precipitated Ras with test compounds)−(background cpm)×100=% inhibition.
(§4) (cpm from precipitated Ras without test compounds)−(background cpm)

FPTase (H-Ras substrate) = FPTase (H-Ras substrate) (UniProt P29702+P49355); assay: in vitro FTase Inhibition Assay, H-Ras as substrate for farnesylation; assay type: biochemical; details: H-Ras used as substrate for farnesylation
Description: as §1, §2, §3, §4

| IC50 (FPTase (K-Ras substrate)) [nM] | IC50 (FPTase (H-Ras substrate)) [nM] | Compound |
| --- | --- | --- |
| > 1000 | 63 | COc1ccc(S(=O)(=O)C2(CCCC#Cc3cc(NC(=O)OC(C)(C)C)ccc3C)SC(=O)NC2=O)cc1 (single isomer, unassigned; more polar) [Example 223, Enantiomer of(3-{5-[5-(4-Methoxybenzenesulfonyl)-2,4-dioxothiazolidin-5-yl]pent-1-ynyl}-4-methylphenyl)carbamic Acid tert-Butyl Ester (more polar)] |
| 4700 | 380 | Cc1ccc(S(=O)(=O)C2(CC#Cc3ccc(Oc4ccccc4)cc3)SC(=O)NC2=O)cc1 (stereo not drawn) [Example 170, 5-[3-(4-Phenoxyphenyl)prop-2-ynyl]-5-(toluene-4-sulfonyl)-thiazolidine-2,4-dione] |
| 17 to 40 | 5 to 10 | O=C1NC(=O)C(CCCC#Cc2cc(Cl)ccc2Cl)(S(=O)(=O)c2ccc(Oc3ccncc3)cc2)S1 (stereo not drawn) [Example 116, 5-[5-(2,5-Dichlorophenyl)pent-4-ynyl]-5-[4-(pyridin-4-yloxy)benz-enesulfonyl]-thiazolidine-2,4-dione] |
| 1000 to 4900 | 450 to 500 | COc1ccc(S(=O)(=O)C2(CCCC#Cc3ccc(NC(=O)OC(C)(C)C)cc3C)SC(=O)NC2=O)cc1 (stereo not drawn) [Example 149, (4-{5-[5-(4-Methoxybenzenesulfonyl)-2,4-dioxo-thiazolidin-5-yl]pent-1-ynyl}-3-methylphenyl)carbamic Acid tert-Butyl Ester] |
| 300 to 340 | 21 to 32 | 5-[5-(4-Chloro-2-methylphenyl)-pent-4-ynyl]-5-(4-iodobenzene-sulfonyl)-thiazolidine-2,4-dione [Example 141] |
| 210 to 1000 | 530 to 700 | COc1ccc(S(=O)(=O)C2(CCCC#Cc3ccc(NC(=O)OC(C)(C)C)cc3C(F)(F)F)SC(=O)NC2=O)cc1 (stereo not drawn) [Example 151, (4-{5-[5-(4-Methoxybenzenesulfonyl)-2,4-dioxothiazolidin-5-yl]pent-1-ynyl}-3-trifluoromethylphenyl)-carbamic Acid tert-Butyl Ester] |
| 510 to 1000 | 20 to 30 | COc1ccc(S(=O)(=O)C2(CCCC#Cc3ccc(Cl)cc3Cl)SC(=O)NC2=O)cc1 (stereo not drawn) [Example 117, 5-[5-(2,4-Dichlorophenyl)pent-4-ynyl]-5-(4-methoxybenzenesulfonyl)-thiazolidine-2,4-dione] |
| 420 to 440 | 10 to 320 | COC(=O)c1ccc(C)c(C#CCCCC2(S(=O)(=O)c3ccc(OC)cc3)SC(=O)NC2=O)c1 (stereo not drawn) [Example 155, 3-{5-[5-(4-Methoxybenzenesulfonyl)-2,4-dioxo-thiazolidin-5-yl]-pent-1-ynyl}-4-methylbenzoic Acid Methyl Ester] |
| 1300 to 1500 | 120 to 140 | Cc1ccc([N+](=O)[O-])cc1C#CCCCC1(S(=O)(=O)c2ccc3ccccc3c2)SC(=O)NC1=O (stereo not drawn) [Example 127, 5-[5-(2-Methyl-5-nitrophenyl)pent-4-ynyl]-5-(naphthalene-2-sulfonyl)-thiazolidine-2,4-dione] |
| 100 to 230 | 11 to 16 | COc1ccc(S(=O)(=O)C2(CCCC#Cc3cc(C(=O)NC(C)(C)C)ccc3C)SC(=O)NC2=O)cc1 (stereo not drawn) [Example 152, N-tert-Butyl-3-{5-[5-(4-methoxy-benzenesulfonyl)-2,4-dioxothiazol-idin-5-yl]pent-1-ynyl}-4-methyl-benzamide] |
| 210 to 400 | 7 to 10 | COc1ccc(S(=O)(=O)C2(CCCC#Cc3cc(NC(=O)OCc4ccc([N+](=O)[O-])cc4)ccc3C)SC(=O)N(C(=O)OCc3ccc([N+](=O)[O-])cc3)C2=O)cc1 (stereo not drawn) [Example 227, 4-Nitrobenzyl 5-[(4-methoxyphenyl)sulfonyl]-5-{5-[2-methyl-5-({[(4-nitrobenzyl)oxy]carbonyl}amino)phenyl]pent-4-ynyl}-2,4-dioxo-1,3-thiazolidine-3-carboxylate] |
| 1000 to 1900 | 43 to 50 | COc1ccc(S(=O)(=O)C2(CCCC#Cc3ccc(C)cc3C)SC(=O)NC2=O)cc1 (stereo not drawn) [Example 136, 5-[5-(2,4-Dimethylphenyl)pent-4-ynyl]-5-(4-methoxybenzenesulfonyl)-thiazolidine-2,4-dione] |
